These results are taken from patent publication US20030149005A1, “24-sulfur-substituted analogs of 1alpha, 25-dihydroxy vitamin D3” (priority 2001, published 2003).

pIC50: −log10 of the molar value.

One may read the pIC50 as the IC50 on a negative log10 scale, so that one unit is a factor of ten. A low value points to a high IC50.

The target in the first data set is T1, CYP24 (Homo sapiens, UniProt Q07973).
T1 construct: When the HPK1A-ras cells are 80-90% confluent, add 1 μL 10^−5 M 1,25(OH)2D3 to 1 mL medium; endogenous in cells; host or cells: HPK1A-ras cells induced with 10^-8 M 1,25(OH)2D3
T1 sequence (Q07973 36-514): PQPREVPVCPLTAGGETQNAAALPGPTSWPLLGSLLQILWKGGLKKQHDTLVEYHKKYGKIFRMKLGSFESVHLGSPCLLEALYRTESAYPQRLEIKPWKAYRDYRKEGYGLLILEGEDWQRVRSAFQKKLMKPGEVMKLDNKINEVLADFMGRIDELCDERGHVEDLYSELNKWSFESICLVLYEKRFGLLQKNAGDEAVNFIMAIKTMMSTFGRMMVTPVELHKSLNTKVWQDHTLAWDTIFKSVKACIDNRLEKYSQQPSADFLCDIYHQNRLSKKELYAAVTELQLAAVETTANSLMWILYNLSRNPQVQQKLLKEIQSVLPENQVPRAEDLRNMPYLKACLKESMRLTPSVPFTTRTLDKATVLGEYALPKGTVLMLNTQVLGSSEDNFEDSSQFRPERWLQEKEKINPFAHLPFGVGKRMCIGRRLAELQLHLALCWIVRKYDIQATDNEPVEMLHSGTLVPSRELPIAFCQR
The experiment in a line: CYP24 enzyme assay (induced HPK1A-ras cells). The format is cell-based. The conditions noted are these: [3H]-1,25(OH)2D3 substrate.
Description: CYP24 Enzyme Assay (Induced KPK1A-ras Cells)
(i) Material and Reagents:
Saturated KCl: KCl 30 g, H2O400 ml
1. Induction of HPK1A-ras cells (The day before assay)
When the HPK1A-ras cells are 80-90% confluent, add 1 μL 10^−5 M 1,25(OH)2D3 to 1 mL medium in the plate (final concentration is 10^−8 M).
2. Preparation of cell suspension
After 18 to 20 hours induction, remove the medium and wash the cell twice with PBS. Then tripsinize the cells from plate, centrifuge (2,000 rpm, 5 min) and suspend cells pellet in DMEM medium+1%BSA.
Count the cells and adjust cells density to 250,000/150 μL, add 150 μL cell suspension to each well in 48-well plate. (including 3 well as no cell control, and 3 well cells without drug or inhibitor as control).
3. Add 25 μL ketoconazole (final concentration 10^−5 M, 10^−6 M, 10^−7 M, 10^−1 M) or drugs into each designated well. Keep the plate in 37° C. for 10 min.
4. Preparation of substrate
Take certain amount of DMEM+1%BSA medium (25*Well number+200) μL to a tube, add certain amount of 3H-1,25(OH)2D3 (well number+2) μL and certain amount of 100 mM DPPD (well number/5) μL and mix them by vortex.
Add 25 mL substrate to each well, incubate the plate at 37° C. for 3 hour.
Add 25 mL substrate to counting plate (2 well) as a total count.
6. Lipid extraction and counting
Add 500 μL methanol to each well to stop the reaction, transfer them to tube
Add 250 μL dichloromethane and vortex.
Add 250 μL dichloromethane and 250 μL saturated KCl, and vortex.
Centrifuge at 4000 rpm for 5 min.
Transfer 100 μL of aqueous phase (upper phase) to counting plastic counting plate. Add 600 μL of scintillation fluid to each well. Count the plate in scintillation counter.
7. Calculation enzyme activity
CPM of cell control after subtraction of CPM of NCC is as 100% enzyme activity.
Enzyme activity=(CPM in test compounds well —CPM in NCC well)/(CPM in Cell control−CPM in NCC well)*100%
The compound `C=C1/C(=C\C=C2/CCC[C@]3(C)[C@@H]([C@H](C)CCS(=O)(=O)c4ccc(Cl)c(Cl)c4)CC[C@@H]23)C[C@@H](O)C[C@@H]1O` [I(i)] had a pIC50 of 7.04.
In the case of `C=C1/C(=C\C=C2/CCC[C@]3(C)[C@@H]([C@H](C)CCS(=O)(=O)C(C)(C)C)CC[C@@H]23)C[C@@H](O)C[C@@H]1O` [I(v)], the pIC50 is 6.66.
On the same count and under the same terms, with `C=C1/C(=C\C=C2/CCC[C@]3(C)[C@@H]([C@H](C)CCS(=O)(=O)c4ccc(C)cc4)CC[C@@H]23)C[C@@H](O)C[C@@H]1O` [I(g)] the figure was 6.67; with `C[C@H](CCS(=O)(=O)c1ccccc1)[C@H]1CC[C@H]2/C(=C/C=C3C[C@@H](O)C[C@H](O)C3)CCC[C@]12C` [I(u)], 6.80.
`C=C1/C(=C\C=C2/CCC[C@]3(C)[C@@H]([C@H](C)CCS(=O)(=O)c4ccc(Cl)cc4)CC[C@@H]23)C[C@@H](O)C[C@@H]1O` [I(e)] showed a pIC50 of 7.03.
On the same count and under the same terms, next, `C=C1/C(=C\C=C2/CCC[C@]3(C)C([C@H](C)CCSC(C)(C)C)=CC[C@@H]23)C[C@@H](O)C[C@@H]1O` [I(gg)]: 6.33; `C=C1/C(=C\C=C2/CCC[C@]3(C)[C@@H]([C@H](C)CCS(=O)(=O)C(C)C)CC[C@@H]23)C[C@@H](O)C[C@@H]1O` [I(w)]: 7.05.

The target of the next data set is T2, CYP27B1 (UniProt O15528).
T2 sequence (O15528 1-508): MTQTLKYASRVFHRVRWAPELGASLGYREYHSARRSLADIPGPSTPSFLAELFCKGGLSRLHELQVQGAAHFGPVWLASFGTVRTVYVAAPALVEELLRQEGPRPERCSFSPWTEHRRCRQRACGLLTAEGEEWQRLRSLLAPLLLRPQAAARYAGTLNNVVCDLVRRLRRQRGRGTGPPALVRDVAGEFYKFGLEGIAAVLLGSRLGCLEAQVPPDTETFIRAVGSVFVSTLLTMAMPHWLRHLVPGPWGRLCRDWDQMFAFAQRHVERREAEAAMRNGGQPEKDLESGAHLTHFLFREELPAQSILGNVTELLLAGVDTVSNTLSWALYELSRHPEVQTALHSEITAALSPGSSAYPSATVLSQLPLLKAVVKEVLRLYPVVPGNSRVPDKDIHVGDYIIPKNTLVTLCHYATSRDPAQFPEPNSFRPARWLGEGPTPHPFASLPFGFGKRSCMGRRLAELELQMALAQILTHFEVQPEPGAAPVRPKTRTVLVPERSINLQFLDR
The experiment in a line: Assay of CYP1-alpha hydroxylase (transfected COS-1 cells). The data set is classed as cell-based. The conditions noted are these: COS-1 cells transfected with CYP-1alpha hydroxylase cDNA, [3H-26,27]-25(OH)D3 substrate. On the procedure: Assay of CYP1-Alpha Hydroxylase (Using Transfected COS-1 Cells)
1. COS-1 cells (50-80% confluent)
2. FuGene 6 Transfection Reagent
3. PcDNA vector containing CYP-1alpha hydroxylase cDNA (1 μg/μl)
5. DMEM Medium (serum-free)
(ii) Transfection Cocktail Preparation (The Amount Depends on How Many Wells Transfected)
1. To a sterile tube, add serum-free medium (100 μl per well), Then add FuGene 6 Reagent (3 μl per well). Tap gently to mix. Pay attention to the order.
2. Add DNA solution (1 μg per well) to the prediluted FuGene 6 Reagent from step 2
3. Gently tap the tube to mix the contents. […] Incubate for 15 min at room temperature (no more than 45 min).
1. Trypsinize Cos-1 cells, centrifuge cell suspension, suspend cells pellet in DMEM medium+10% FCS.
2. Dilute the cells suspension to 750,000 cell/ml (75 cell/square),
1. Add 1.7 ml DMEM medium+10 O %FCS to each well of 6 well plate.
2. Transfer the correct volume of the cell suspension (200 μl/well) to the transfection cocktail. Mix them gently
3. Add 0.3 ml of the mixture to each well. Make sure that the same amount cells are added to each well. Swirl the wells to ensure even dispersal.
4. Incubate the cells for 24 hours at 37° C., 5% CO2 until enzyme activity assay.
(B) Enzyme Activity Assay
1. Wash cells once with PBS. Be careful, don't disturb the attached cells
2. Add 0.55 ml medium (DMEM+1%BSA) each well.
3. Add 0.025 ml medium containing test compounds
4. Incubate the cells for 10 minutes
6. Incubate the cells for 2 hour.
7. Add 1.5 ml Methanol to stop reaction
8. Add internal standard.
9. Transfer the medium to labeled tube.
10. Add 0.75 ml dichloromethane, vortex and keep in room temperature for 15 minutes.
11. Add 0.75 ml dichloromethane and 0.75 ml saturated KCl
12. Vortex and centrifuge
13. Remove upper phase and dry the lower phase in Speed-Vac
14. Add 110 μl mobile phase, vortex and centrifuge for 5 min.
15. Transfer 105 μl to the insert in HPLC vial.
16. HPLC analysis conditions:
Solvent: Hexane/isopropanol/methanol (91/7/2)
Detector: UV detector and radioactive detector.
With `C=C1/C(=C\C=C2/CCC[C@]3(C)[C@@H]([C@H](C)CCS(=O)(=O)c4ccc(Cl)c(Cl)c4)CC[C@@H]23)C[C@@H](O)C[C@@H]1O` [I(i)], the pIC50 was less than 6.00.
Same read-out and setting: with `C=C1/C(=C\C=C2/CCC[C@]3(C)[C@@H]([C@H](C)CCS(=O)(=O)C(C)(C)C)CC[C@@H]23)C[C@@H](O)C[C@@H]1O` [I(v)] the figure was less than 5.00.
`C=C1/C(=C\C=C2/CCC[C@]3(C)[C@@H]([C@H](C)CCS(=O)(=O)c4ccc(C)cc4)CC[C@@H]23)C[C@@H](O)C[C@@H]1O` [I(g)] had a pIC50 of less than 6.00.
As for `C=C1/C(=C\C=C2/CCC[C@]3(C)[C@@H]([C@H](C)CCS(=O)(=O)c4ccc(Cl)cc4)CC[C@@H]23)C[C@@H](O)C[C@@H]1O` [I(e)], the negative-log IC50 (pIC50) was less than 6.00.
Consider `C=C1/C(=C\C=C2/CCC[C@]3(C)C([C@H](C)CCSC(C)(C)C)=CC[C@@H]23)C[C@@H](O)C[C@@H]1O` [I(gg)], for which the negative logarithm of the IC50 (pIC50) is 5.07.
Same read-out and setting: next, `C=C1/C(=C\C=C2/CCC[C@]3(C)[C@@H]([C@H](C)CCS(=O)(=O)c4ccccc4)CC[C@@H]23)C[C@@H](O)C[C@@H]1O` [I(a)]: less than 5.00; `C=C1/C(=C\C=C2/CCC[C@]3(C)[C@@H]([C@H](C)CCS(=O)(=O)C(C)C)CC[C@@H]23)C[C@@H](O)C[C@@H]1O` [I(w)]: 5.04.

For the next data set, the target named is T3, CYP27A1 (Homo sapiens, UniProt Q02318).
T3 construct: fused on or other part: Possibly fused to adrenodoxin reductase and adrenodoxin, if the fusion enzyme of Dilworth et al. 1996 was used
T3 sequence (Q02318 34-531): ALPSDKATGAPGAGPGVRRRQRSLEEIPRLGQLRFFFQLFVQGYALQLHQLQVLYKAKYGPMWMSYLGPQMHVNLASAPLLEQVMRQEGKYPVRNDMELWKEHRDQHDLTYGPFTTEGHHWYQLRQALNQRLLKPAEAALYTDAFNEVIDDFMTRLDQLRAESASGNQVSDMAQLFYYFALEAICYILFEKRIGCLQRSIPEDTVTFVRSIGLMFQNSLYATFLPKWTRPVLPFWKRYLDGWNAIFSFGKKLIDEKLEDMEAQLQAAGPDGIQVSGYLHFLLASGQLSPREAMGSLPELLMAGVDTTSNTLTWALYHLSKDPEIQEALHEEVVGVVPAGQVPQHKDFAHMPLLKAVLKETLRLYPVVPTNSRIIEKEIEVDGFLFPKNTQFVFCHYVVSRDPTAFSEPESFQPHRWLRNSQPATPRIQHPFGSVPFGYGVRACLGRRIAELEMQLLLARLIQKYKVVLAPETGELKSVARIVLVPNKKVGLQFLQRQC
The experiment in a line: CYP27A1 enzyme assay. The data set is classed as biochemical.
Conditions: not given
From the text: Dilworth F J, Black S M, Guo Y D, Miller W L, Jones G. Construction of a P450c27 fusion enzyme: a useful tool for analysis of vitamin D3 25-hydroxylase (1996) Biochem J 320:267-271
Sawada N, Sakaki T, Ohta M, Inouye K. Metabolism of vitamin D (3) by human CYP27A1 (2000) Biochem Biophys Res Commun 273(3):977-84
Compound `C=C1/C(=C\C=C2/CCC[C@]3(C)[C@@H]([C@H](C)CCS(=O)(=O)c4ccccc4)CC[C@@H]23)C[C@@H](O)C[C@@H]1O` [I(a)] showed a pIC50 of less than 5.00.

Test system in the next data set: not listed separately
The experiment in a line: Calcium excretion (hypercalcemia assay) in rats. The format is in vivo. The conditions noted are these: calcium excretion protocol.
Description: Compound I(a) was tested for its effect on calcium excretion and weight gain in rats using a protocol described in Posner et al. J. Med. Chem. 41, 3008-3014, 1998.
With `C[C@H](CCS(=O)(=O)c1ccccc1)[C@H]1CC[C@H]2/C(=C/C=C3C[C@@H](O)C[C@H](O)C3)CCC[C@]12C` [I(u)], the calcemic activity result was “strongly non-calcemic”.

Still in this data set, the particulars now being: concentration 20 fold greater than the concentration of calcitriol.
On to `C=C1/C(=C\C=C2/CCC[C@]3(C)[C@@H]([C@H](C)CCS(=O)(=O)c4ccccc4)CC[C@@H]23)C[C@@H](O)C[C@@H]1O` [I(a)], for which the urinary calcium levels result was “did not show an increase in urinary calcium levels”.

Still in this data set, the particulars now being: concentration 20 fold greater than the concentration of calcitriol, listed as Ia.
With `C=C1/C(=C\C=C2/CCC[C@]3(C)[C@@H]([C@H](C)CCS(=O)(=O)c4ccccc4)CC[C@@H]23)C[C@@H](O)C[C@@H]1O` [I(a)], the urinary calcium levels entry is listed as “did not increase the levels of calcium in the urine”.
